Our source for the TGI values is PubChem BioAssay (NCI).

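Compound exposure: 48 hours, 5 concentrations, 96-well plates. TGI: concentration producing complete growth inhibition.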 A value given as a limit tells only on which side of the number the result lay.

Test systems include UACC-62 melanoma; SK-MEL-2 melanoma; OVCAR-5 ovarian; COLO 205 colon; MOLT-4 leukemia; MCF7 breast; DU-145 prostate; SNB-19 CNS; HCC-2998 colon; A498 renal; HCT-15 colon; UACC-257 melanoma; A549 NSCLC; U251 CNS; 786-0 renal; SNB-75 CNS; NCI/ADR-RES ovarian; TK-10 renal; BT-549 breast.
What all share (assay): inhibition of tumour cell growth, NCI panel, 48 h

For `O=C(O)c1n[nH][nH]c1=S`, the TGI with UACC-62 melanoma, in the experiment with SK-MEL-2 melanoma, with OVCAR-5 ovarian, in the experiment on COLO 205 colon, in the experiment on MOLT-4 leukemia and in the experiment with MCF7 breast was more than 100 µM throughout. In addition, the TGI in the experiment with DU-145 prostate, with SNB-19 CNS, in the experiment with HCC-2998 colon, in the experiment with A498 renal, in the experiment on HCT-15 colon and with UACC-257 melanoma was more than 100 µM each time. Moreover, the TGI in the experiment with A549 NSCLC, in the experiment on U251 CNS, with 786-0 renal, with SNB-75 CNS and in the experiment on NCI/ADR-RES ovarian was more than 100 µM throughout.

`CN(C)c1ccc(/C=C/C(=O)CC(=O)/C=C/c2ccc(N(C)C)cc2)cc1`: the TGI in the experiment with UACC-62 melanoma, in the experiment with SK-MEL-2 melanoma, in the experiment on OVCAR-5 ovarian, with COLO 205 colon, with TK-10 renal and in the experiment with MOLT-4 leukemia was more than 100 µM throughout. Also, the TGI with MCF7 breast, in the experiment on DU-145 prostate, with SNB-19 CNS, with HCC-2998 colon, in the experiment with HCT-15 colon and in the experiment with A549 NSCLC was more than 100 µM throughout. Moreover, the TGI in the experiment on U251 CNS, in the experiment with 786-0 renal, with SNB-75 CNS and in the experiment with NCI/ADR-RES ovarian was more than 100 µM throughout.

Take `Cc1cc(-c2cccc3ccccc23)c(C#N)c(=S)n1C1OC(CO)C(O)C(O)C1O` (configuration not stated): the TGI in the experiment with UACC-62 melanoma, with SK-MEL-2 melanoma, in the experiment with OVCAR-5 ovarian, in the experiment on COLO 205 colon, in the experiment with TK-10 renal and in the experiment with MOLT-4 leukemia was more than 100 µM each time. For the same compound, the TGI in the experiment with MCF7 breast, in the experiment on HCC-2998 colon, in the experiment on A498 renal, in the experiment on HCT-15 colon, with UACC-257 melanoma and in the experiment with A549 NSCLC was more than 100 µM throughout. Besides, the TGI in the experiment with 786-0 renal is more than 100 µM; with SNB-75 CNS it was 47.5 µM; in the experiment on NCI/ADR-RES ovarian it was more than 100 µM.

Regarding `COc1cc(C=O)cc(/C=N/n2c3ccccc3c3ccccc32)c1O`, the TGI in the experiment with UACC-62 melanoma was more than 100 µM; in the experiment on OVCAR-5 ovarian it was more than 100 µM; with COLO 205 colon, 52.1 µM; with TK-10 renal, more than 100 µM; in the experiment on MOLT-4 leukemia, 76.8 µM; in the experiment with MCF7 breast, 42.6 µM. Further, the TGI in the experiment with DU-145 prostate was more than 100 µM; in the experiment on SNB-19 CNS, more than 100 µM; in the experiment with HCC-2998 colon, 67.4 µM; with A498 renal it was 48.7 µM; in the experiment with HCT-15 colon, more than 100 µM; in the experiment with UACC-257 melanoma, more than 100 µM. Also, the TGI in the experiment on BT-549 breast is 9.7 µM; in the experiment on A549 NSCLC it was more than 100 µM; in the experiment on U251 CNS, more than 100 µM; in the experiment on 786-0 renal, more than 100 µM; in the experiment with SNB-75 CNS, 15.7 µM.

`O=C1/C(=c2\s/c(=C\c3ccccc3)c(=O)n2-c2ccccc2)SC(=S)N1c1ccccc1`: the TGI with UACC-62 melanoma, with SK-MEL-2 melanoma, in the experiment on OVCAR-5 ovarian, with COLO 205 colon, with TK-10 renal and with MOLT-4 leukemia was more than 100 µM each time. The TGI in the experiment with MCF7 breast, in the experiment on DU-145 prostate, in the experiment on SNB-19 CNS, in the experiment on HCC-2998 colon, in the experiment with A498 renal and in the experiment with HCT-15 colon was more than 100 µM throughout. The TGI in the experiment on UACC-257 melanoma is more than 100 µM; with A549 NSCLC, more than 100 µM; in the experiment on U251 CNS, 81.1 µM; with 786-0 renal, more than 100 µM; in the experiment with SNB-75 CNS, more than 100 µM; in the experiment on NCI/ADR-RES ovarian, 96.8 µM.

As to `N=C(N)C1CN(CCCCCCCCCCN2CC(C(=N)N)C(=O)NC2=O)C(=O)NC1=O` (configuration not stated), the TGI with UACC-62 melanoma, in the experiment on SK-MEL-2 melanoma, with OVCAR-5 ovarian, in the experiment on COLO 205 colon, in the experiment with TK-10 renal and in the experiment on MOLT-4 leukemia was more than 10 µM throughout. Moreover, the TGI with MCF7 breast, with SNB-19 CNS, in the experiment with HCC-2998 colon, with A498 renal, in the experiment on HCT-15 colon and in the experiment with UACC-257 melanoma was more than 10 µM each time. Moreover, the TGI in the experiment with BT-549 breast, with A549 NSCLC, in the experiment on U251 CNS, in the experiment on 786-0 renal, with SNB-75 CNS and in the experiment with NCI/ADR-RES ovarian was more than 10 µM in each case.

On to `O=S1(=O)OCCOS(=O)(=O)C1S(=O)(=O)c1ccc2ccccc2c1`, for which the TGI in the experiment on SK-MEL-2 melanoma, with OVCAR-5 ovarian, in the experiment on COLO 205 colon, in the experiment with TK-10 renal, in the experiment on MOLT-4 leukemia and in the experiment on MCF7 breast was more than 100 µM each time. Further, the TGI with DU-145 prostate, in the experiment with SNB-19 CNS, in the experiment on HCC-2998 colon, in the experiment with HCT-15 colon, in the experiment with UACC-257 melanoma and with BT-549 breast was more than 100 µM in each case. Besides, the TGI with A549 NSCLC, with U251 CNS, with 786-0 renal and with NCI/ADR-RES ovarian was more than 100 µM each time.

In the case of `CCc1cc2c(c3c1CCC3=O)CC1(Cc3ccc(C)cc3C1)C2` (configuration not stated), the TGI in the experiment with UACC-62 melanoma was more than 100 µM; in the experiment with SK-MEL-2 melanoma, 67.6 µM; in the experiment on OVCAR-5 ovarian, more than 100 µM; in the experiment with COLO 205 colon, more than 100 µM; with TK-10 renal it was more than 100 µM; in the experiment with MOLT-4 leukemia, 68.7 µM. The TGI in the experiment with MCF7 breast was more than 100 µM; in the experiment on HCC-2998 colon it was more than 100 µM; in the experiment with A498 renal, more than 100 µM; in the experiment with HCT-15 colon, more than 100 µM; with UACC-257 melanoma, more than 100 µM; in the experiment with A549 NSCLC, 40.8 µM. Besides, the TGI with U251 CNS, in the experiment with 786-0 renal and with NCI/ADR-RES ovarian was more than 100 µM throughout.

Consider `CN1C2=C(CC3=C1CC(C)(C)CC3=O)C(=O)CC(C)(C)C2`, for which the TGI in the experiment with UACC-62 melanoma, in the experiment with OVCAR-5 ovarian, in the experiment on TK-10 renal, with MOLT-4 leukemia, in the experiment on MCF7 breast and in the experiment with SNB-19 CNS was more than 100 µM in each case. Further, the TGI in the experiment on HCC-2998 colon, in the experiment on A498 renal, in the experiment with HCT-15 colon, in the experiment on BT-549 breast, with A549 NSCLC and with U251 CNS was more than 100 µM throughout. Besides, the TGI in the experiment with 786-0 renal, in the experiment with SNB-75 CNS and with NCI/ADR-RES ovarian was more than 100 µM throughout.
